The source of these data is US20200115357A1, “LIVER X RECEPTORS (LXR) MODULATORS” (Phenex-FXR GmbH, priority 2017, published 2020).

Bounds are passed on as bounds.

One assay has as its system Srebp1c. In words: Short term HFD mouse model, gene expression in liver tissue: Srebp1c. Particulars: liver mRNA (qPCR, normalized to Tbp), three oral doses of 20 mg/kg, HFD mice. The assay is classed as in vivo. The method, then: Short Term HFD Mouse Model:
The in vivo transcriptional regulation of several LXR target genes by LXR modulators was assessed in mice.
For this, C57BL/6J were purchased from Elevage Janvier (Rennes, France) at the age of 8 weeks. After an acclimation period of two weeks, animals were preferred on a high fat diet (HFD) (Ssniff Spezialdiaten GmbH, Germany, Surwit EF D12330 mod, Cat. No. E15771-34), with 60 kcal % from fat plus 1% (w/w) extra cholesterol (Sigma-Aldrich, St. Louis, Mo.) for 5 days. Animals were maintained on this diet during treatment with LXR modulators. […]
Upon termination, liver was collected, dipped in ice cold PBS for 30 seconds and cut into appropriate pieces. […] For the clinical chemistry analysis from plasma, alanine aminotransferase (ALT, IU/mL), cholesterol (CHOL, mg/dL) and triglycerides (TG, mg/dL) were determined using a fully-automated bench top analyzer (Respons®910, DiaSys Greiner GmbH, Flacht, Germany) with system kits provided by the manufacturer. […]
To obtain total RNA from frozen liver tissue, samples (25 mg liver tissue) were first homogenized with RLA buffer (4M guanidin thiocyanate, 10 mM Tris, 0.97% w:v β-mercapto-ethanol). […] Quantitative PCR was performed and analyzed using Prime time Gene expression master mix (Integrated DNA Technologies, Coralville, Iowa, USA) and a 384-format ABI 7900HT Sequence Detection System (Applied Biosystems, Foster City, USA). […]
In general terms: Real-time PCR tracks product formation cycle by cycle.
As for `Cc1ccc2ccccc2c1S(=O)(=O)N(Cc1ccc(-c2cccc(C(C)(C)C(=O)O)c2)cc1)Cc1ccc(C(F)(F)F)o1` [Example 24, 2-Methyl-2-(4′-(((2-methyl-N-((5-(trifluoromethyl)furan-2-yl)methyl)naphthalene)-1-sulfonamido)methyl)-[1,1′-biphenyl]-3-yl)propanoic acid], the “Srebp1c suppression compared to vehicle” value came to 0.25.
Still for that read-out and setting: the result for `Cc1cc(C)c(S(=O)(=O)N(Cc2ccc(C(F)(F)F)o2)Cc2ccc(-c3cccc(C(C)(C)C(=O)O)c3)cc2Cl)c(C)c1` [10/5] reads 0.33.

A further assay concerns the target T1, LXRβ full length (FL) (Homo sapiens, UniProt P55055, DUP175-175).
T1 construct: the full length (FL) proteins of LXRα (amino acids 1-447); NP005684; NP009052; expressed in transfected cells; host or cells: HEK293
T1 sequence (P55055 with tags, fused parts or gaps DUP175-175): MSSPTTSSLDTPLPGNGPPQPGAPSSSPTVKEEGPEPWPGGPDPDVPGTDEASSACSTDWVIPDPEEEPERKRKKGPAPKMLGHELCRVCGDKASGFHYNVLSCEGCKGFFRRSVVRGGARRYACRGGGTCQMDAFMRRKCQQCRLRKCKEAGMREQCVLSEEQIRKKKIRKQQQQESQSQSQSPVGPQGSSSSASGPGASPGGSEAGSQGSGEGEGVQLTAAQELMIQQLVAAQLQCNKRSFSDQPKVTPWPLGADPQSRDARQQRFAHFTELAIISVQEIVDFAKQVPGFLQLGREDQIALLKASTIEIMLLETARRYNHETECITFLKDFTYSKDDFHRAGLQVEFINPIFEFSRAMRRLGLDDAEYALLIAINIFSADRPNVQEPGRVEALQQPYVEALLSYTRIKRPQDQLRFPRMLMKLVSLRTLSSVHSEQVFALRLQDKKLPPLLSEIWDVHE
Briefly: LXR Gal4 reporter transient transfection assay (M2H), Gal4β FL. It counts as cell-based. The following applies: HEK293 cells; read-out: M2H Gal4β FL activity range (EC50). Summed up: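 Mammalian two-hybrid in HEK293 cells transiently transfected with LXRα/β full-length or LBD fused to NFkB activation domain, plus GAL4-DBD fusions of SRC1 coactivator or NCoR corepressor domains and a GAL4-responsive firefly luciferase reporter. Compounds added 4 h post-transfection (vehicle ≤0.2% DMSO), 16 h incubation; firefly luciferase normalized to Renilla.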
Regarding `Cc1cc(C)c(S(=O)(=O)N(Cc2ccc(-c3cc(F)c(CO)c(S(C)(=O)=O)c3)cc2)Cc2ccc(C(F)(F)F)o2)c(C)c1` [Example C3/2], the EC50 (in general, the concentration needed to bring the measured effect to its halfway point) was under 100 nM.
Turning to `Cc1cc(C)c(S(=O)(=O)N(Cc2ccc(-c3cccc(CC(=O)O)c3)cc2)Cc2ccc(C(F)(F)F)o2)c(C)c1` [Example 2, 2-(4′-(((2,4,6-Trimethyl-N-((5-(trifluoromethyl)furan-2-yl)methyl)phenyl)sulfonamido)methyl)-[1,1′-biphenyl]-3-yl)acetic acid], the EC50 was under 100 nM.
As to `Cc1ccc2ccccc2c1S(=O)(=O)N(Cc1ccc(-c2cccc(S(=O)(=O)CC(=O)O)c2)cc1)Cc1cccc(C(F)(F)F)c1` [11/19], the half-maximal effective concentration (EC50) lay in the range of 100 to 1000 nM.
For `Cc1cc(C)c(S(=O)(=O)N(Cc2ccc(-c3cccc(S(=O)(=O)CC(=O)O)c3)cc2)Cc2ccc(C(F)(F)F)o2)c(C)c1` [Example 5, 2-((4′-(((2,4,6-Trimethyl-N-((5-(trifluoromethyl)furan-2-yl)methyl)phenyl)sulfonamido)methyl)-[1,1′-biphenyl]-3-yl)sulfonyl)acetic acid], the EC50 lay within 100 to 1000 nM.
With `Cc1ccc2ccccc2c1S(=O)(=O)N(Cc1ccc(-c2cccc(C(C)(C)C(=O)O)c2)cc1)Cc1ccc(C(F)(F)F)o1` [Example 24, 2-Methyl-2-(4′-(((2-methyl-N-((5-(trifluoromethyl)furan-2-yl)methyl)naphthalene)-1-sulfonamido)methyl)-[1,1′-biphenyl]-3-yl)propanoic acid], the EC50 is under 100 nM.
On the same count and under the same terms, to `Cc1cc(C)c(S(=O)(=O)N(Cc2ccc(-c3cccc(CC(=O)O)c3)cc2)C(C)c2ccc(C(F)(F)F)o2)c(C)c1` (stereo not drawn) [2/2] belongs under 100 nM; to `Cc1cc(C)c(S(=O)(=O)N(Cc2ccc(C(F)(F)F)o2)Cc2ccc(-c3cccc(C(C)(C)C(=O)O)c3)cc2Cl)c(C)c1` [10/5], under 100 nM.
`Cc1cc(C)c(S(=O)(=O)N(Cc2ccc(-c3cccc(S(=O)(=O)C(C)(C)C(=O)O)c3)cc2)Cc2ccc(C(F)(F)F)o2)c(C)c1` [5/2]: the EC50 fell in the range of 100 to 1000 nM.
The same measure, in the same setting: to `Cc1cc(C)c(S(=O)(=O)N(Cc2ccc(-c3cccc(C(C)(C)C(=O)O)c3)cc2)Cc2ccc(C(F)(F)F)o2)c(C)c1` [7/5] belongs under 100 nM.
Same read-out and setting: the result for `COc1cc(-c2cccc(C(C)(C)C(=O)O)c2)ccc1CN(Cc1ccc(C(F)(F)F)o1)S(=O)(=O)c1c(C)cc(C)cc1C` [10/4] reads under 100 nM.
